Test results taken from patent US6288091A, “Antiherpes virus compounds and methods for their preparation and use” (Boehringer Ingelheim Ltd., priority 1999, dated 2001).
pEC50, pIC50: −log10 of the molar value. Read-outs that look alike come from different tables or passages of the source.

Key:
[1] = test system: HCMV (strain AD169); experiment: Inhibition of HCMV replication, ELISA assay (Hs-68 cells); assay type: cell-based, Human Cytomegalovirus (HCMV); details: read-out: ELISA CMV EC50
Procedure: C) Inhibition of Human Cytomegalovirus (HCMV) Replication
The effect of compounds on the replication of HCMV has been measured by using an ELISA-based assay (ELISA) and a plaque reduction assay (PRA).
Hs-68 cells (ATCC # CRL 1635) were seeded in 96 well microtiter plates at 10,000 cells/well in 100 μL of DMEM medium (Gibco Canada Inc.) supplemented with 10% fetal bovine serum (FBS, Gibco Canada Inc.). The plates were incubated for 3 days at 37° to allow the cells to reach 80-90% confluency prior to the assay.
The medium was removed from wells by aspiration. The cells then were infected at a multiplicity of infection (MOI) of 0.01 PFU/cell with 50 μL of HCMV (strain AD169, ATCC VR-538) in DMEM medium supplemented with 5% heat inactivated FBS (assay medium). The virus was allowed to adsorb to cells for 2 h at 37°. Following viral adsorption, the medium was removed from the wells by aspiration. The cells were washed twice with 200 μL of assay medium to remove unabsorbed virus. The cells were then incubated with or without 100 μL of appropriate concentrations of test reagent in assay medium. After 8 days of incubation at 37°, the extent of viral replication was determined by an ELISA assay which detects the late structural protein p28 of HCMV.
Eight days after infection, the medium was aspirated from the wells. Non-specific binding sites were blocked by adding 200 μL of phosphate buffered saline containing 1% (w/v) bovine serum albumin (blocking buffer) to each well and incubating the plates for 30 min at room temperature. After removal of the blocking buffer by aspiration, the cells were fixed with 100 μL of cold ethanol-acetone solution (95:5) per well. The plates were placed at -20° for 30 min. The plates were washed 4 times with phosphate buffered saline containing 0.05% (v/v) polyoxyethylene sorbitan monolaurate (Tween®). Thereafter, 100 μL of mAb UL99 (Advanced Biotechnologies Inc., #13-130-100) recognizing HCMV protein p28 was added to each wells and plates were incubated for 2 h at room temperature. The plates were washed four times with 200 μL of the above-noted phosphate buffered saline/Tween-20® solution. The cells were then incubated with 100 μL of sheep anti-mouse IgGγ horseradish peroxidase conjugated for 2 h at room temperature. The plates were then washed four times with 200 μL of above-noted phosphate buffered saline/Tween-20® solution. Thereafter, 100 μL of ortho phenylenediamine dihydrochloride (OPD, Gibco Canada Inc.) solution was added to each well and the plates were agitated on a microplate shaker for 30 min in the dark. Color development was monitored at 450 nm using a microplate spectrophotometer.
The SAS program was used to calculate the % inhibition of viral replication and to generate EC50 values.
The EC50 values obtained according to this assay method for certain thiazolylphenyl derivatives of this invention are listed in the following tables under the heading ELISA CMV.

[2] = biological target: T1, HSV-1 helicase-primase (Human herpesvirus 1, UniProt P10189+P10236); experiment: HSV-1 DNA-dependent ATPase assay (inhibition of HSV-1 helicase-primase); assay type: biochemical
T1 construct: made in house; host or cells: Sf21 insect cells triply infected with recombinant baculoviruses (UL5, UL8, UL52)
Method in brief: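 ATP hydrolysis was measured as inorganic phosphate (malachite green/molybdate, 650 nm) after 20 min at 34°. Reaction: 3 μg/mL purified Sf21-expressed UL5/UL8/UL52 helicase-primase, 25 μM single-stranded M13 DNA hybridized to 68-mer, 4 mM ATP, pH 7.5 HEPES buffer, 3.3% DMSO. Net absorbance change with and without inhibitor gave DNA-dependent ATPase activity.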

[3] = test system: HSV-1 strain F or KOS; experiment: Inhibition of herpes simplex virus (HSV-1) replication in cell culture (BHK-21 cells, glycoprotein C ELISA); assay type: cell-based
Method in brief: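 Replication readout: ELISA for HSV-1 late glycoprotein C (mAb C11, peroxidase-OPD, 450 nm) on glutaraldehyde-fixed cells. Monolayers (~50,000 cells/well) were infected with strain F or KOS (MOI 0.05 PFU/cell), then incubated 24 h at 37° with compound in 2% FBS α-MEM. EC50 derived from % inhibition.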

[4] = Human betaherpesvirus 5, AD169, Hs68, Group 1 Table 5 entries
[5] = Human alphaherpesvirus 1, BHK-21, Group 1 Table 5 entries
[6] = Human betaherpesvirus 5, AD169, Hs68, Group 1 Table 3 entries
[7] = Human alphaherpesvirus 1, BHK-21, Group 1 Table 3 entries
[8] = Human betaherpesvirus 5, AD169, Hs68, Group 1 Table 1 entries
[9] = Human alphaherpesvirus 1, BHK-21, Group 1 Table 1 entries

T1 sequence (P10192 whole entry): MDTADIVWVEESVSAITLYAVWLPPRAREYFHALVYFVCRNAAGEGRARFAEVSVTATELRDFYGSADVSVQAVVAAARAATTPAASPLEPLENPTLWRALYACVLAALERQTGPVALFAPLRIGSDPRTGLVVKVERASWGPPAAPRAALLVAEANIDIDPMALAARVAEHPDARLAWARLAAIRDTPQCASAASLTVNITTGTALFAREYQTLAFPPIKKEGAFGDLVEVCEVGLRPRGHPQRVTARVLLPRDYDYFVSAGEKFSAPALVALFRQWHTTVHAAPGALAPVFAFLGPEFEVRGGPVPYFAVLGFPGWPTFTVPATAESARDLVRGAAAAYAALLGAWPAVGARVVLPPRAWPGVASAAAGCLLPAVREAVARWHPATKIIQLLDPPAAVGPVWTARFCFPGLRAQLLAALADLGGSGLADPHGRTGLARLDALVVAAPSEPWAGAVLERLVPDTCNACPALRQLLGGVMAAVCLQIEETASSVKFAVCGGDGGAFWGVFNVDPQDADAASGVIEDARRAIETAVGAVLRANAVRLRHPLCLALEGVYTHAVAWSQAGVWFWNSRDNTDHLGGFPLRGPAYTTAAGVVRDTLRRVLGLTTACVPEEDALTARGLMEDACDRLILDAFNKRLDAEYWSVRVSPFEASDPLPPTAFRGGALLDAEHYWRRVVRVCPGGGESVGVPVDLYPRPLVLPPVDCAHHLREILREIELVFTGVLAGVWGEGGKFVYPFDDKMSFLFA
T1 sequence (P10236 whole entry): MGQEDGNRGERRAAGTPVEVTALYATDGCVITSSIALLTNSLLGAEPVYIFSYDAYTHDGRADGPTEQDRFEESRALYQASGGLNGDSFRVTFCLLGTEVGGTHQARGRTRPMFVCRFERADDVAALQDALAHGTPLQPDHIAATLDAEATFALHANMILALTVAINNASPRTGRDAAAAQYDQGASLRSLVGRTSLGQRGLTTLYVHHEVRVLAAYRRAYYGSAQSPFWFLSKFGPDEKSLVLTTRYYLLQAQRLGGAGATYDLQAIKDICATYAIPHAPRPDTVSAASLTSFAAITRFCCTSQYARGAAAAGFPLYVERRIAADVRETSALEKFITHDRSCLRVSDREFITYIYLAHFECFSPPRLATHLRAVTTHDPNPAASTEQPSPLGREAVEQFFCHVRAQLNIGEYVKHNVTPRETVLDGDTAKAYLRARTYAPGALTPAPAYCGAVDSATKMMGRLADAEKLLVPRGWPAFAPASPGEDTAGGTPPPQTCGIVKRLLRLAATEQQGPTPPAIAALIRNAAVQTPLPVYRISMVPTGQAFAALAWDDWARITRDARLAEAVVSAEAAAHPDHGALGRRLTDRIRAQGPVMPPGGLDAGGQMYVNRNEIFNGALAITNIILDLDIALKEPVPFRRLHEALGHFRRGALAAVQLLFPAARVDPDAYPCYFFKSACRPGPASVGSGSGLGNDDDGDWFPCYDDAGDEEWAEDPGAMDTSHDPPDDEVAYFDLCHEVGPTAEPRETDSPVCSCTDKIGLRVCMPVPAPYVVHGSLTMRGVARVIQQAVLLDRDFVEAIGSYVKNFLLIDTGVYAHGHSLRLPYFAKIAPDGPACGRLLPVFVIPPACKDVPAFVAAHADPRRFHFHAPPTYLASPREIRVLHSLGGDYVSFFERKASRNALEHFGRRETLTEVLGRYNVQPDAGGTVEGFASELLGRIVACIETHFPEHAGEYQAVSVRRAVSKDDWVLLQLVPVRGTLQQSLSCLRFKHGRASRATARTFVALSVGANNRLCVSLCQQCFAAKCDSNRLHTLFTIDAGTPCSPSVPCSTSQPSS
T1 sequence (P10189 whole entry): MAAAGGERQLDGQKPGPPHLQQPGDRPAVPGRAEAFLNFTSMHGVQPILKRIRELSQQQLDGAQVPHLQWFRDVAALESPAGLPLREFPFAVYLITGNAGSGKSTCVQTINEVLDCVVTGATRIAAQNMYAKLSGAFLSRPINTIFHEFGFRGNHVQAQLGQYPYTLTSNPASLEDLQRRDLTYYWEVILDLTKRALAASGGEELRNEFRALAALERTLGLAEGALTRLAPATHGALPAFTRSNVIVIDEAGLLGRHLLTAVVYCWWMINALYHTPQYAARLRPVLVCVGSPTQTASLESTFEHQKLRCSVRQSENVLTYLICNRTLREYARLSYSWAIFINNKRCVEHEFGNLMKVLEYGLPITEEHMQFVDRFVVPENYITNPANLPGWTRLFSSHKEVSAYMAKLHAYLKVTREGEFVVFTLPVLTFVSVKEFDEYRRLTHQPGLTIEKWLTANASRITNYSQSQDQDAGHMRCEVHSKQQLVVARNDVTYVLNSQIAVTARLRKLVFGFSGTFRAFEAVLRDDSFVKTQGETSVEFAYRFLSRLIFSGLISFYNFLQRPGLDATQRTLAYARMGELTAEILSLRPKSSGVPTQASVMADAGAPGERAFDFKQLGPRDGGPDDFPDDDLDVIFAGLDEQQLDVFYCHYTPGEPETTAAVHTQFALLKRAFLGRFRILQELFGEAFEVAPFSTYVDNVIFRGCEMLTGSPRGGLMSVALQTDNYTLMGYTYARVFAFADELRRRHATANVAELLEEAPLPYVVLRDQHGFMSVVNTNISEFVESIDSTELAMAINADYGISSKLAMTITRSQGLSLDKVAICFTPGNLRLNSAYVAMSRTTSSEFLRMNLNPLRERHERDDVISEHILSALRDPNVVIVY

C[C@@H](C(=O)Nc1ccc(-c2csc(N)n2)cc1)N(Cc1ccccc1)C(=O)OC(C)(C)C [Example 16]
pEC50 [1, 4]: 5.55
pIC50 ([2]; Group 1 Table 5 entries): 6.34
pEC50 [3, 5]: 7.10

CN(C)c1nc(-c2ccc(NC(=O)CN(CC3CCCCC3)C(=O)OC(C)(C)C)cc2)cs1 [Example 17]
pEC50 [1, 6]: 5.40
pIC50 ([2]; Group 1 Table 3 entries): < 4.30
pEC50 [3, 7]: < 5.10

C[C@H](C(=O)Nc1ccc(-c2csc(N)n2)cc1)N(Cc1ccccc1)C(=O)OC(C)(C)C [Example 17]
pEC50 [1, 4]: 5.12
pIC50 ([2]; Group 1 Table 5 entries): 6.96
pEC50 [3, 5]: 7.26

CC(=O)Nc1nc(-c2ccc(NC(=O)CN(Cc3ccccc3)C(=O)c3ccncc3)cc2)cs1 [Example 19]
pEC50 [1, 6]: 4.55
pIC50 ([2]; Group 1 Table 3 entries): < 4.30
pEC50 [3, 7]: 5.05

CC(C)(C)C(=O)N[C@@H](Cc1ccccc1)C(=O)Nc1ccc(-c2csc(N)n2)cc1 [Example 20]
pEC50 [1, 4]: 5.00
pIC50 ([2]; Group 1 Table 5 entries): 5.89
pEC50 [3, 5]: 6.22

CC(=O)N[C@@H](Cc1ccccc1)C(=O)Nc1ccc(-c2csc(N)n2)cc1 [Example 21]
pEC50 [1, 4]: 5.36
pIC50 ([2]; Group 1 Table 5 entries): 5.51
pEC50 [3, 5]: 5.33

CC(C)OC(=O)N[C@@H](Cc1ccccc1)C(=O)Nc1ccc(-c2csc(N)n2)cc1 [Example 22]
pEC50 [1, 4]: 4.74
pIC50 ([2]; Group 1 Table 5 entries): 6.08
pEC50 [3, 5]: 6.60

CC(C)(C)OC(=O)N[C@@H](CC1CCCCC1)C(=O)Nc1ccc(-c2csc(N)n2)cc1 [Example 24]
pEC50 [1, 4]: 5.09
pIC50 ([2]; Group 1 Table 5 entries): 7.77
pEC50 [3, 5]: 7.37

Cc1cccc(C)c1C(=O)N(CC(=O)Nc1ccc(-c2csc(N)n2)cc1)Cc1ccccc1 [Example 25]
pEC50 [1, 8]: 5.36
pIC50 ([2]; Group 1 Table 1 entries): 7.33
pEC50 [3, 9]: 7.96

CC(C)(C)OC(=O)N[C@@H](Cc1cccnc1)C(=O)Nc1ccc(-c2csc(N)n2)cc1 [Example 26]
pEC50 [1, 4]: 4.70
pIC50 ([2]; Group 1 Table 5 entries): 6.89
pEC50 [3, 5]: 7.37

Nc1nc(-c2ccc(NC(=O)NN3CCCCC3)cc2)cs1 [Example 27]
pEC50 ([1]; Human betaherpesvirus 5, AD169, Hs68, Group 2 Table 1 entries): 4.81
pIC50 ([2]; Group 2 Table 1 entries): 4.30
pEC50 ([3]; Human alphaherpesvirus 1, BHK-21, Group 2 Table 1 entries): 4.80

C[C@@H](c1ccccc1)N(C)CCC(=O)Nc1ccc(-c2csc(N)n2)cc1 [Example 28]
pEC50 ([1]; Human betaherpesvirus 5, AD169, Hs68, Group 1 Table 2 entries): 4.74
pEC50 ([3]; Human alphaherpesvirus 1, BHK-21, Group 1 Table 2 entries): 5.70

CC1(C(=O)N(CC(=O)Nc2ccc(-c3csc(N)n3)cc2)Cc2ccccc2)CCCCC1 [Example 35]
pEC50 [1, 8]: 5.09
pIC50 ([2]; Group 1 Table 1 entries): 7.46
pEC50 [3, 9]: 8.22

CC(C)(C)OC(=O)N1CCC(C(=O)N(CC(=O)Nc2ccc(-c3csc(N)n3)cc2)Cc2ccccc2)CC1 [Example 40]
pEC50 [1, 8]: 4.60
pIC50 ([2]; Group 1 Table 1 entries): 5.77
pEC50 [3, 9]: 6.15

COc1ccc(CN(CC(=O)Nc2ccc(-c3csc(N)n3)cc2)C(=O)C2CCCCC2)cc1 [Example 46]
pEC50 [1, 8]: 5.10
pIC50 ([2]; Group 1 Table 1 entries): 7.12
pEC50 [3, 9]: 7.03

Nc1nc(-c2ccc(NC(=O)CN(Cc3ccccn3)C(=O)c3ccncc3)cc2)cs1 [Example 56]
pEC50 [1, 8]: 4.42
pIC50 ([2]; Group 1 Table 1 entries): 5.92
pEC50 [3, 9]: 6.26

C[C@@H](C1CCCCC1)N(CC(=O)Nc1ccc(-c2csc(N)n2)cc1)C(=O)OC(C)(C)C [Example 108]
pEC50 [1, 8]: 5.17
pEC50 [3, 9]: 6.41

CC(C)CN(CC(=O)Nc1ccc(-c2csc(N)n2)cc1)C(=O)OC(C)(C)C [Example 112]
pEC50 [1, 8]: 5.49
pEC50 [3, 9]: 5.92

Nc1nc(CC(=O)N(CC(=O)Nc2ccc(-c3csc(N)n3)cc2)Cc2ccccc2)cs1 [Example 119]
pEC50 [1, 8]: 4.60
pIC50 ([2]; Group 1 Table 1 entries): 6.17

CN1CCC(C(=O)N(CC(=O)Nc2ccc(-c3csc(N)n3)cc2)Cc2ccccc2)CC1 [Example 123]
pEC50 [1, 8]: 4.39
pIC50 ([2]; Group 1 Table 1 entries): < 4.30
